Experimental data reported in patent US10919852B2, “Immunomodulator compounds” (CHEMOCENTRYX, INC., priority 2017, dated 2021).

These compounds were tested against human PD-L1 / Human PD-1 (Homo sapiens (Human), UniProt Q9NZQ7) (assay: Enzyme-Linked Immunosorbent Assay (ELISA), PD-1/PD-L1 binding). Conditions: plate-coated human PD-L1, biotinylated human PD-1.
Protocol: Biological Example: Enzyme-Linked Immunosorbent Assay—ELISA
96 Well plates were coated with […] of human PD-L1 (obtained from R&D) in PBS overnight at 4° C. The wells were then blocked with 2% BSA in PBS (W/V) with 0.05% TWEEN-20 for 1 hour at 37° C. The plates were washed 3 times with PBS/0.05% TWEEN-20 and the compounds were serial diluted (1:5) in dilution medium and added to the ELISA plates. Human PD-1 and biotin 0.3 μg/mL (ACRO Biosystems) were added and incubated for 1 hour at 37° C. then washed 3 times with PBS/0.05% TWEEN-20. A second block was performed with 2% BSA in PBS (W/V)/0.05% TWEEN-20 for 10 min at 37° C. and was washed 3 times with PBS/0.05% TWEEN-20. Streptavidin-HRP was added for 1 hour at 37° C. then washed 3 times with PBS/0.05% TWEEN-20. TMB substrate was added and reacted for 20 min at 37° C. A stop solution (2 N aqueous H2SO4) was added. The absorbance was read at 450 nm using a micro-plate spectrophotometer.

Chain of human PD-L1 / Human PD-1 (Q9NZQ7 19-239): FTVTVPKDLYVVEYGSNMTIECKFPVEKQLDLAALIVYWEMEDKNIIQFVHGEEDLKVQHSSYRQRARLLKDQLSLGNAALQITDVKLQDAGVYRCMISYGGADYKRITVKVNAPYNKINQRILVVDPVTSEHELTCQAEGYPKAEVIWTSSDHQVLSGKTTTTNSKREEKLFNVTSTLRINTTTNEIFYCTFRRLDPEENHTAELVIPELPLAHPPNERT

| SMILES | IC50 [nM] |
| --- | --- |
| Cc1c(OCCCN2CCCC2C(C)(C)C)cccc1-c1cccc2c1CC[C@@H]2Oc1cc(OCc2cc(C#N)cc(C#N)c2)c(CN[C@H]2CCC(=O)NC2)cc1Cl (stereo partly shown) | 5 to 500 |
| N#Cc1cncc(COc2cc(O[C@H]3CCc4c(-c5cccc(OCCCN6CC(O)C6)c5Cl)cccc43)c(Cl)cc2CN2CC(O)C2)c1 | < 5 |
| Cc1c(OCCCN2CCCCC2)cccc1-c1cccc2c1CC[C@@H]2Oc1cc(OCc2cc(C#N)cc(C#N)c2)c(CN[C@@H]2CCCC[C@@H]2O)cc1Cl | < 5 |
| Cc1c(OCCCN2CCC(C)(F)CC2)cccc1-c1cccc2c1CC[C@@H]2Oc1cc(OCc2cc(C#N)cc(C#N)c2)c(CN[C@@H]2CCC(=O)NC2)cc1Cl | 5 to 500 |
| CCOc1cc(O[C@H]2CCc3c(-c4cccc(OCCCN5CCC(F)CC5)c4Cl)cccc32)c(Cl)cc1CN[C@H](C(=O)NS(C)(=O)=O)[C@@H](C)O | 5 to 500 |
| C[C@@H](O)[C@H](NCc1cc(Cl)c(O[C@H]2CCc3c(-c4cccc(OCCCN5CCC(O)CC5)c4F)cccc32)cc1OCc1cncc(C#N)c1)C(=O)O | < 5 |
| Cc1c(OCCCN2CCC(O)CC2)cccc1-c1cccc2c1CC[C@@H]2Oc1cc(OCc2cncc(C#N)c2)c(CN(C)[C@H](C(=O)O)[C@@H](C)O)cc1Cl | < 5 |
| N#Cc1cncc(COc2cc(O[C@H]3CCc4c(-c5cccc(OCCCN6CCC(F)CC6)c5Cl)cccc43)c(Cl)cc2CN[C@@H]2CCOC[C@H]2F)c1 [drawing 223] | 5 to 500 |
| Cc1c(OCCCN2CCC(O)CC2)cccc1-c1cccc2c1CC[C@@H]2Oc1cc(OCc2cncc(C#N)c2)c(CN[C@H](C(N)=O)[C@@H](C)O)cc1Cl | < 5 |
| CCOc1cc(O[C@@H]2c3cccc(-c4cccc(OCCCN5CC(O)C5)c4Cl)c3C[C@@H]2F)c(Cl)cc1CN[C@@](C)(CO)C(=O)O | 5 to 500 |
| Cc1c(OCCCN2CCC(O)CC2)cccc1-c1cccc2c1C[C@H](F)[C@@H]2Oc1cc(OCc2cncc(C#N)c2)c(CN[C@@H]2CCCC[C@@H]2O)cc1Cl | < 5 |
| N#Cc1cncc(COc2cc(O[C@H]3CCc4c(-c5cccc(OCCCN6CCC(F)CC6)c5Cl)cccc43)c(Cl)cc2CN[C@H]2CC[C@@H]2O)c1 | < 5 |
| N#Cc1cncc(COc2cc(O[C@H]3CCc4c(-c5cccc(OCCCN6CCC(F)CC6)c5Cl)cccc43)c(Cl)cc2CN[C@H]2CCC[C@@H]2O)c1 | < 5 |
| Cc1c(OCCCN2CCC(O)CC2)cccc1-c1cccc2c1CC[C@@H]2Oc1cc(OCc2cncc(C#N)c2)c(CNCC2CCC(=O)N2)cc1Cl (stereo partly shown) | < 5 |
| N#Cc1cncc(COc2cc(O[C@H]3CCc4c(-c5cccc(OCCCN6CC7(C6)CC(F)(F)C7)c5Cl)cccc43)c(Cl)cc2CN[C@@H]2CC[C@H]2O)c1 | < 5 |
| CCOc1cc(O[C@H]2CCc3c(-c4cccc(OCCCN5[C@H](C)CC[C@H]5C)c4C)cccc32)c(Cl)cc1CN1CCC(C(=O)OC)CC1 | 5 to 500 |

| SMILES | IC50 [nM] |
| --- | --- |
| Cc1c(OCCCN2CCC(O)CC2)cccc1-c1cccc2c1CC[C@@H]2Oc1cc(OCCCN2CC[C@H](O)C2)c(CN[C@@H]2CCCC[C@@H]2O)cc1Cl | < 5 |
| N#Cc1cncc(COc2cc(O[C@H]3CCc4c(-c5cccc(OCCCN6CCC(F)CC6)c5Cl)cccc43)c(Cl)cc2CN[C@@H]2CCOC[C@H]2O)c1 | < 5 |
| N#Cc1cncc(COc2cc(O[C@H]3CCc4c(-c5cccc(OCCCN6CCNC(=O)C6)c5Cl)cccc43)c(Cl)cc2CNC2(C(=O)O)CCC2)c1 | < 5 |
| CC(CO)(CO)NCc1cc(Cl)c(O[C@H]2CCc3c(-c4cccc(OCCCN5CCNC(=O)C5)c4Cl)cccc32)cc1OCc1cncc(C#N)c1 | < 5 |
| C[C@@](CO)(NCc1cc(Cl)c(O[C@@H]2c3cccc(-c4cccc(OCCCN5CC(O)C5)c4Cl)c3C[C@@H]2F)cc1OCc1cncc(C#N)c1)C(=O)O | < 5 |
| N#Cc1cncc(COc2cc(O[C@H]3CCc4c(-c5cccc(OCCCN6CC7(C6)CC(F)(F)C7)c5Cl)cccc43)c(Cl)cc2CN[C@H]2CCC[C@H]2O)c1 | < 5 |
| N#Cc1cncc(COc2cc(O[C@H]3CCc4c(-c5cccc(OCCCN6CC7(C6)CC(F)(F)C7)c5Cl)cccc43)c(Cl)cc2CN[C@@H]2CCCC[C@@H]2O)c1 | < 5 |
| N#Cc1cncc(COc2cc(O[C@H]3CCc4c(-c5cccc(OCCCN6CC7(C6)CC(F)(F)C7)c5Cl)cccc43)c(Cl)cc2CN[C@@H]2CCC[C@@H]2O)c1 | < 5 |
| CN1CCC(COc2cccc(-c3cccc4c3CC[C@@H]4Oc3cc(OCc4cncc(C#N)c4)c(CN[C@@H]4CCCC[C@@H]4O)cc3Cl)c2Cl)C1 (stereo partly shown) | < 5 |
| CCOc1cc(O[C@H]2CCc3c(-c4cccc(OCCCN5CCC(F)CC5)c4Cl)cccc32)c(Cl)cc1CN[C@H]1CCC(=O)NC1 | 5 to 500 |
| Cc1c(OCCCN2CCC(F)CC2)cccc1-c1cccc2c1CC[C@@H]2Oc1cc(OCc2cc(C#N)cc(C#N)c2)c(CN[C@H]2CCCCNC2=O)cc1Cl | 5 to 500 |
| CCOc1cc(O[C@H]2CCc3c(-c4cccc(OCCCN5CCOCC5)c4C)cccc32)c(Cl)cc1CN1CC(C)(C(=O)O)C1 | 5 to 500 |
| N#Cc1cncc(COc2cc(O[C@H]3CCc4c(-c5cccc(OCCCN6CC7(C6)CC(F)(F)C7)c5Cl)cccc43)c(Cl)cc2CN[C@@H]2CCC[C@H]2O)c1 | < 5 |
| Cc1c(OCCCN2CCC(C)(F)CC2)cccc1-c1cccc2c1CC[C@@H]2Oc1cc(OCc2cc(C#N)cc(C#N)c2)c(CNC[C@H]2CCC(=O)N2)cc1Cl | 5 to 500 |
| N#Cc1cc(C#N)cc(COc2cc(O[C@H]3CCc4c(-c5cccc(OCCCN6CCC(F)CC6)c5Cl)cccc43)c(Cl)cc2CN[C@H]2CCC(=O)NC2)c1 | 5 to 500 |

Now from value to compound:

| IC50 [nM] | SMILES |
| --- | --- |
| 5 to 500 | Cc1c(OCCCN2CCC(F)CC2)cccc1-c1cccc2c1CC[C@@H]2Oc1cc(OCc2cncc(C#N)c2)c(CN[C@H](C(N)=O)[C@@H](C)O)cc1Cl |
| 5 to 500 | N#Cc1cncc(-c2cc(O[C@H]3CCc4c(-c5cccc(OCCCN6CCC(F)CC6)c5Cl)cccc43)c(Cl)cc2CN[C@@H]2CCCC[C@@H]2O)c1 |
| 5 to 500 | Cc1c(OCCCN2CC3(C2)CC(F)(F)C3)cccc1-c1cccc2c1CC[C@@H]2Oc1cc(OCc2cc(C#N)cc(C#N)c2)c(CNC[C@H]2CCC(=O)N2)cc1Cl |
| < 5 | CC(CO)(NCc1cc(Cl)c(O[C@H]2CCc3c(-c4cccc(OCCCN5CC6(CC(O)C6)C5)c4Cl)cccc32)cc1OCc1cncc(C#N)c1)C(=O)O (stereo partly shown) |
| < 5 | N#Cc1cncc(COc2cc(O[C@H]3CCc4c(-c5cccc(OCCCN6CCC(F)CC6)c5Cl)cccc43)c(Cl)cc2CN[C@H]2CCC(=O)NC2)c1 |
| 5 to 500 | CCOc1cc(O[C@H]2CCc3c(-c4cccc(OCCCN5CC(O)C5)c4Cl)cccc32)c(Cl)cc1CN[C@@H]1CCCC[C@@H]1O |
| 5 to 500 | CCOc1cc(O[C@H]2CCc3c(-c4cccc(OCCCN5CCC5(C)C)c4C)cccc32)c(Cl)cc1CN(C)CC(C)C(=O)O (stereo partly shown) |
| 5 to 500 | CN1CC(COc2cccc(-c3cccc4c3CC[C@@H]4Oc3cc(OCc4cncc(C#N)c4)c(CN[C@H]4CCC(=O)NC4)cc3Cl)c2Cl)CC1=O (stereo partly shown) |
| 5 to 500 | Cc1c(OCCCN2[C@H](C)CCC[C@@H]2C)cccc1-c1cccc2c1CC[C@@H]2Oc1cc(OCc2cc(C#N)cc(C#N)c2)c(CNC[C@H]2CCC(=O)N2)cc1Cl |
| < 5 | N#Cc1cncc(COc2cc(O[C@H]3CCc4c(-c5cccc(OCCCN6CCC(F)CC6)c5Cl)cccc43)c(Cl)cc2CN[C@H]2CCC[C@H]2O)c1 |
| < 5 | C[C@@H](O)[C@H](NCc1cc(Cl)c(O[C@H]2CCc3c(-c4cccc(OCCCN5CCCCC5)c4Cl)cccc32)cc1OCc1cncc(C#N)c1)C(=O)NS(C)(=O)=O |
| 5 to 500 | Cc1c(OCCCN2CCC(F)CC2)cccc1-c1cccc2c1CC[C@@H]2Oc1cc(OCc2cc(C#N)cc(C#N)c2)c(CN[C@@H]2CCCNC2=O)cc1Cl |
| < 5 | Cc1c(OCCCNCC(C)(C)O)cccc1-c1cccc2c1CC[C@@H]2Oc1cc(OCc2cncc(C#N)c2)c(CNCC2CCC(=O)N2)cc1Cl (stereo partly shown) |
| < 5 | Cc1c(OCCCN2CCC[C@H]2CO)cccc1-c1cccc2c1CC[C@@H]2Oc1cc(OCc2cncc(C#N)c2)c(CN[C@H](C(=O)O)[C@@H](C)O)cc1Cl |
| < 5 | CCOc1cc(O[C@H]2CCc3c(-c4cccc(OCCCN5CC[C@@H](O)C5)c4C)cccc32)c(Cl)cc1CNC(C)(CO)CO |
| < 5 | N#Cc1cncc(COc2cc(O[C@H]3CCc4c(-c5cccc(OCCCN6CC(O)C6)c5Cl)cccc43)c(Cl)cc2CNC[C@@H]2CCC(=O)N2)c1 |
| < 5 | Cc1c(OCCCN2CCC(O)CC2)cccc1-c1cccc2c1CC[C@@H]2Oc1cc(OCc2cncc(C#N)c2)c(CN2CCC(O)CC2)cc1Cl |
| < 5 | Cc1c(OCCCN2CCC(F)CC2)cccc1-c1cccc2c1CC[C@@H]2Oc1cc(OCc2cncc(C#N)c2)c(CNCC2CCC(=O)N2)cc1Cl (stereo partly shown) |
| 5 to 500 | Cc1c(OCCCN2CCC(F)CC2)cccc1-c1cccc2c1CC[C@@H]2Oc1cc(OCc2cncc(C#N)c2)c(CNCC2CCC(=O)N2C)cc1Cl (stereo partly shown) |
| 5 to 500 | CCOc1cc(O[C@H]2CCc3c(-c4cccc(OCCCN5CCCC5(C)C)c4C)cccc32)c(Cl)cc1CN(C[C@@H]1CCC(=O)N1)C(C)C |
| < 5 | Cc1c(OCCCN2CCC(O)CC2)cccc1-c1cccc2c1C[C@H](F)[C@@H]2Oc1cc(OCc2cncc(C#N)c2)c(CN[C@H](C(=O)O)[C@@H](C)O)cc1Cl |
| 5 to 500 | CCOc1cc(O[C@H]2CCc3c(-c4cccc(OCCCN5[C@H](C)CC[C@H]5C)c4C)cccc32)c(Cl)cc1CN1CCC[C@@H](C(=O)O)C1 |
| < 5 | N#Cc1cncc(COc2cc(O[C@H]3CCc4c(-c5cccc(OCCCN6CC7(C6)CC(F)(F)C7)c5Cl)cccc43)c(Cl)cc2CN[C@H]2CCC[C@@H]2O)c1 |
| 5 to 500 | Cc1c(OCCCN2CCC(F)CC2)cccc1-c1cccc2c1CC[C@@H]2Oc1cc(OCc2cc(C#N)cc(C#N)c2)c(CN2CC3(C2)NC(=O)NC3=O)cc1Cl |
